One series addresses T1, PDZ1-2 of PSD-95 (Homo sapiens, UniProt P78352).
T1 construct: made in house; host or cells: E. coli BL21-DE3 pLysS
The series can be described thus: Fluorescence polarization (FP) assay, affinity for PDZ1-2 of PSD-95. Type of series: binding. The following applies: for Ki: probe AB143 0.5 nM, PDZ1-2 […], IC50 converted to Ki. An excerpt:
VI.i. Fluorescence Polarization (FP) Assay: as described below, Example 1 provides a convenient and reliable way to monitor and evaluate the inhibitor properties of a PSD-95 inhibitor of the invention. The FP assay allows a wide range of peptide analogues to be tested and compared with respect to their interaction with PDZ domains, and their specificity with respect to the tandem PDZ1-2 of PSD-95. PDZ1-2 is expressed using standard recombinant DNA technology known to those skilled in the art.
More specifically, the assay is based on a heterologous competition binding assay, where the affinity measured as IC50 of a given (non-fluorescent) peptide analogue for a PDZ domain is measured in the presence of a fixed concentration of a fluorescent labeled dimeric ligand (AB143; FIG. 4). Determined IC50 values are converted to Ki values (Nikolovska-Coleska et al, Anal. Biochem. 2004, 332, p. 261-273). The 5-FAM fluorophore may be attached to the dimeric ligand by coupling with HATU or HBTU.
The cDNA coding for PSD-95 PDZ1-2 tandem (corresponding to residues 61-249 in the human full-length PSD95α without exon 4b) were amplified by inverted PCR and cloned in a modified His-tagged pRSET vector (Invitrogen, Carlsbad, Calif., USA). The encoded PDZ1-2 peptide further comprised the sequence, […] (SEQ ID NO: 14), which was used as a tag for purification (His-tag), and the DNA coding sequences and encoded proteins are designated as follows: HIS-PDZ1-2 DNA [SEQ ID NO: 1] encoding HIS-PDZ1-2 protein [SEQ ID NO: 2]. Competent E. coli bacteria (BL21-DE3, pLysS) were transformed with PDZ1-2 expressing construct and grown overnight on agar plates containing ampicillin (100 μg/mL) and chloramphenicol (35 μg/mL) at 37° C. Colonies were picked and used to inoculate bacterial cultures (LB medium with 50 μg/mL ampicillin). These were shaken while being incubated at 37° C. until A600 of the culture reached 0.45, at which point 1 mM isopropyl β-D-1-thiogalactopyranoside was added. Induced cultures were incubated over night at 30° C. (PDZ1-2). Cells were harvested by spinning at 10,000 g for 10 min at 4° C. and re-suspended in lysis buffer (50 mM Tris/HCL pH 7.5, 1 mM PMSF, 25 μg/ml DNAse, 40 mM Mg2SO4). The cells were destroyed using a cell disruptor apparatus at 26 KPsi. The cell lysate was spun down at 35,000 g for 1 hour and the supernatant filtered with a 0.45 μm and a 0.22 μm filter. Purification of expressed PDZ1-2 peptide was performed with first a nickel (II)-charged column (HisTrap™ HP, GE Healthcare, UK) equilibrated with Tris-buffer (Tris/HCl buffer 50 mM, pH 7.5) followed by gel-filtration. For gel-filtration the PDZ1-2 sample was loaded on a Superdex™ 75 HR 10/30 column (GE Healthcare, UK) equilibrated with Tris buffer (20 mM Tris/HCL, pH 7.5) with a constant flow rate at 0.5 mL/min. The relevant fractions were analyzed on a SDS-PAGE gel stained by a standard silver staining protocol. The final purification was analyzed by electrospray ionization liquid chromatography-mass spectrometry (ESI-LC/MS) to get the exact molecular weight and thereby verify the identity of the PDZ1-2 domain. Molar extinction coefficients were found by amino acids analysis (Alphalyse, Odense, Denmark) and thereafter used for measuring protein concentrations. […]
An in vitro affinity measurement assay was developed based on the fluorescence polarization principle in order to provide affinity constants (Ki values) between synthesized ligands (e.g. dimeric inhibitors) and PDZ1-2 of PSD-95. […]

A short description of series [1]: Spinal cord detection of fluorescent PSD-95 inhibitors. Type of series: in vivo, mice. As to conditions: mouse, in vivo. On the procedure:
To investigate if AB143 and AB145 are able to enter spinal cord tissue, they were administered to the mice by intraperitoneal injection (30 mg/kg). The drug-treated mice were decapitated 30 min after injection, and the spinal cord was carefully dissected out, to which 5% trichloroacetic acid (TCA) (300 μL per 0.1 g tissue) was added and the tissue homogenized with an ultrasonic homogenizer (on ice). The homogenated tissue was vortexed and centrifuged for 10 min (20000 g at 4° C.). The supernatant was transferred to a test tube and evaporated, and the residue was reconstituted in water and its fluoresence intensity was determined by using a fluorescence plate reader (excitation/emission:470/525 nm). For quantification of the compounds, a standard curve was prepared by spiking a known amount of AB143 and AB145 into spinal cord tissue from control mice prior to homogenization, followed by work-up and analysis similar to the drug-treated mice.

The test system of series [2] is CFA-induced mechanical allodynia/hyperalgesia. In words: Complete Freund's adjuvant (CFA) inflammatory pain, von Frey test. Type of series: in vivo, mice.

“Also recorded” adds a separate entry of the source. Like-named read-outs stand apart in the source and are kept apart here.

T1 sequence (P78352 with tags, fused parts or gaps): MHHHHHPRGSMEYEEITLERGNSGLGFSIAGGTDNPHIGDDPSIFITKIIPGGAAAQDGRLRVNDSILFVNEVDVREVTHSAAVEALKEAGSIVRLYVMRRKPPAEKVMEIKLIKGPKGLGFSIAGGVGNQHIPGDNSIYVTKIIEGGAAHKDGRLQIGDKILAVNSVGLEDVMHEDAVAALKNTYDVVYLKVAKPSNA

In the case of `CC(C)[C@H](NC(=O)[C@H](CC(=O)O)NC(=O)[C@@H](NC(=O)[C@H](CCC(=O)O)NC(=O)[C@H](CCCCNC(=O)[C@H](CCCNC(=N)N)NC(=O)[C@H](CCCNC(=N)N)NC(=O)[C@H](CCCNC(=N)N)NC(=O)[C@H](CCC(N)=O)NC(=O)[C@H](CCCNC(=N)N)NC(=O)[C@H](CCCNC(=N)N)NC(=O)[C@H](CCCCN)NC(=O)[C@H](CCCCN)NC(=O)[C@H](CCCNC(=N)N)NC(=O)CNC(=O)[C@@H](N)Cc1ccc(O)cc1)NC(=O)CCOCCOCCOCCOCCOCCC(=O)N[C@@H](CCCCNC(=O)[C@H](CCCNC(=N)N)NC(=O)[C@H](CCCNC(=N)N)NC(=O)[C@H](CCCNC(=N)N)NC(=O)[C@H](CCC(N)=O)NC(=O)[C@H](CCCNC(=N)N)NC(=O)[C@H](CCCNC(=N)N)NC(=O)[C@H](CCCCN)NC(=O)[C@H](CCCCN)NC(=O)[C@H](CCCNC(=N)N)NC(=O)CNC(=O)[C@@H](N)Cc1ccc(O)cc1)C(=O)N[C@@H](CCC(=O)O)C(=O)N[C@H](C(=O)N[C@@H](CC(=O)O)C(=O)N[C@H](C(=O)O)C(C)C)[C@@H](C)O)[C@@H](C)O)C(=O)O` [AB144_H], the inhibition constant Ki at PDZ1-2 of PSD-95 (Ki ± SEM, affinity towards PDZ1-2 of PSD-95, heterologous competition, TBS pH 7.4) worked out at 24 ± 2 nM. Besides, the “fold lower affinity than AB144” value on PDZ1-2 of PSD-95 (PDZ1-2 of PSD-95, from Ki) is recorded as about 5 fold.

With `CC[C@H](C)[C@H](NC(=O)CCOCCOCCNCCOCCOCCC(=O)N[C@H](C(=O)N[C@@H](CCC(=O)O)C(=O)N[C@H](C(=O)N[C@@H](C)C(=O)N[C@H](C(=O)O)C(C)C)[C@@H](C)O)[C@@H](C)CC)C(=O)N[C@@H](CCC(=O)O)C(=O)N[C@H](C(=O)N[C@@H](C)C(=O)N[C@H](C(=O)O)C(C)C)[C@@H](C)O` [AB141, NPEG4(IETAV)2], the “ability to enter spinal cord tissue (concluded from fluorescent surrogates)” value (shortened to “ability to enter spinal cord tissue”) in series [1] was “able to reach their target, PSD-95, in the spinal cord”.

On to `CC[C@H](C)[C@H](NC(=O)CCOCCOCCOCCOCCOCCC(=O)N[C@H](C(=O)N[C@@H](CCC(=O)O)C(=O)N[C@@H](CO)C(=O)N[C@@H](CC(=O)O)C(=O)N[C@H](C(=O)O)C(C)C)[C@@H](C)CC)C(=O)N[C@@H](CCC(=O)O)C(=O)N[C@@H](CO)C(=O)N[C@@H](CC(=O)O)C(=O)N[C@H](C(=O)O)C(C)C` [AB123, PEG4(IESDV)2], for which, in series [1], the “ability to enter spinal cord tissue” value is recorded as “able to reach their target, PSD-95, in the spinal cord”.

For the compound `CC[C@H](C)[C@H](NC(=O)CCOCCOCCN(CCOCCOCCC(=O)N[C@H](C(=O)N[C@@H](CCC(=O)O)C(=O)N[C@H](C(=O)N[C@@H](C)C(=O)N[C@H](C(=O)O)C(C)C)[C@@H](C)O)[C@@H](C)CC)C(=O)c1ccc2c(c1)C(=O)OC21c2ccc(O)cc2Oc2cc(O)ccc21)C(=O)N[C@@H](CCC(=O)O)C(=O)N[C@H](C(=O)N[C@@H](C)C(=O)N[C@H](C(=O)O)C(C)C)[C@@H](C)O` [AB143, F-NPEG4(IETAV)2], on PDZ1-2 of PSD-95 (saturation binding, probe 0.5 nM, TBS pH 7.4, read-out: Kd towards PDZ1-2 of PSD-95), the Kd turned out to be 7.8 ± 0.11 nM. For the same compound, the “fluorescence in spinal cord tissue compared to saline-treated mice” value in series [1] is “clear and distinct fluorescence increase”.

For the compound `CC[C@H](C)[C@H](NC(=O)CCOCCOCCOCCOCCOCCOCCOCCC(=O)N[C@H](C(=O)N[C@@H](CCC(=O)O)C(=O)N[C@@H](CO)C(=O)N[C@@H](CC(=O)O)C(=O)N[C@H](C(=O)O)C(C)C)[C@@H](C)CC)C(=O)N[C@@H](CCC(=O)O)C(=O)N[C@@H](CO)C(=O)N[C@@H](CC(=O)O)C(=O)N[C@H](C(=O)O)C(C)C` [AB122, PEG6(IESDV)2], the “ability to enter spinal cord tissue” value in series [1] is recorded as “able to reach their target, PSD-95, in the spinal cord”.

Turning to `CC[C@H](C)[C@H](NC(=O)CCOCCOCCOCCOCCOCCC(=O)N[C@H](C(=O)N[C@@H](CCC(=O)O)C(=O)N[C@H](C(=O)N[C@@H](C)C(=O)N[C@H](C(=O)O)C(C)C)[C@@H](C)O)[C@@H](C)CC)C(=O)N[C@@H](CCC(=O)O)C(=O)N[C@H](C(=O)N[C@@H](C)C(=O)N[C@H](C(=O)O)C(C)C)[C@@H](C)O` [AB125, PEG4(IETAV)2], the Ki at PDZ1-2 of PSD-95 (heterologous competition, TBS pH 7.4, read-out: Ki ± SEM, affinity towards PDZ1-2 of PSD-95) is about 9.5 nM. The CFA-induced hyperalgesia entry was “significantly reversed” in series [2] (1, 3 and 10 mg/kg given 24 hours after CFA-injection, at 72 hours); “significant reversal of the CFA-induced hyperalgesia” in series [2] (3 and 10 mg/kg given 24 hours after CFA-injection, after 1 hour); “significant reversal was still observed” in series [2] (3 and 10 mg/kg given 24 hours after CFA-injection, after 24 hours); “significantly reversed the CFA-induced hyperalgesia” in series [2] (3 and 10 mg/kg, given simultaneously with CFA, after 1 hour); “significant reversal was still observed” in series [2] (3 and 10 mg/kg, given simultaneously with CFA, after 24 hours). Moreover, the “CFA-induced pain response (paw withdrawal threshold)” value in series [2] (3, 10 and 30 mg/kg i.p. simultaneously with CFA, 24 hours afterwards) is reported as “reduces CFA-induced pain response; also recorded: differed significantly from saline-treated mice”. Further, the “duration of reversal of CFA-induced hyperalgesia” value in series [2] (administered 24 hours after CFA treatment) is reported as “at least 3 days”. Moreover, in series [2] (administered concurrently with CFA, 1 hour and 24 hours after treatment), the CFA-induced mechanical hyperalgesia entry is “prevented the development of CFA-induced mechanical hyperalgesia”.

(Values after patent publication US9139615B2, “High-affinity, dimeric inhibitors of PSD-95 as efficient neuroprotectants against ischemic brain damage and for treatment of pain” (University of Copenhagen, priority 2011, dated 2015).)
